Results reported in patent US9133521B2, “Composition for diagnosing Alzheimer's disease using methylation status of HMOX1 gene and method for diagnosing Alzheimer's disease using the same” (Ewha University—Industry Collaboration Foundation, priority 2012, dated 2015).

Test system: HMOX1 expression in H4 cell line
Experiment: HMOX1 gene expression by qRT-PCR in H4 cell line treated with 5-aza-2′-deoxycytidine
Format: cell-based, human
Conditions: normal H4 cell line, 10 μM for 3 days, normalized to GAPDH
Procedure: Human neuroglioblastoma cell line, H4 was cultured in a Dulbecco's modified Eagle medium containing 10% fetal bovine serum, 100 U/mL penicillin, 100 μg/mL streptomycin and 2 mM L-glutamine, and APP695-Swedish mutant (K595N/M596L)-expressing Alzheimer's disease model cell line, H4-sw was cultured in the H4 culture medium supplemented with 500 μg/mL geneticine.
Total RNAs were extracted from the cell line and the brain tissues using an RNeasy mini kit (Qiagen). The extraction method was performed according to the manufacturer's manual. The extracted total RNAs were quantified using a spectrophotometer, and RNA degradation was examined by electrophoresis in a 1% agarose gel.
For cDNA synthesis, Superscript II reverse transcriptase (Invitrogen) was used. 1 μg of total RNA and 50 ng of oligo dT were denatured at 70° C. for 10 minutes, and then a reaction mixture of 4 μA of 5×RT buffer, 2 μA of […], 4 μA of 2.5 mM dNTP mixture, 200 units of Superscript II reverse transcriptase, 10 units of RNase inhibitor was added thereto. 20 μA of the reaction mixture was reacted at 25° C. for 10 minutes, at 42° C. for 50 minutes, and at 95° C. for 5 minutes for cDNA synthesis. The product was diluted at 1:4, and 2 μA thereof was used as a template of qRT-PCR. […]

Nc1ncn([C@H]2C[C@H](O)[C@@H](CO)O2)c(=O)n1 [5-aza-2′-deoxycytidine]
HMOX1 expression: increased
